Values of other authors as cited in patent US20240050388A1 (BioLink Life Sciences, Inc., priority 2022, published 2024).

Conditions: oral

CC(=O)[O-].CC(=O)[O-].[Ca+2] [calcium acetate]
In vivo phosphate binding: essentially quantitative
